Experiments:
[1] = target: T1, EHD1 EH domain-containing protein 1 (Homo sapiens, UniProt Q9H4M9); test: competitive isoTOP-ABPP; format: binding
T1 construct: endogenous in cells; host or cells: MDA-MB-231 (soluble fraction of lysate)
T1 sequence (Q9H4M9 1-534): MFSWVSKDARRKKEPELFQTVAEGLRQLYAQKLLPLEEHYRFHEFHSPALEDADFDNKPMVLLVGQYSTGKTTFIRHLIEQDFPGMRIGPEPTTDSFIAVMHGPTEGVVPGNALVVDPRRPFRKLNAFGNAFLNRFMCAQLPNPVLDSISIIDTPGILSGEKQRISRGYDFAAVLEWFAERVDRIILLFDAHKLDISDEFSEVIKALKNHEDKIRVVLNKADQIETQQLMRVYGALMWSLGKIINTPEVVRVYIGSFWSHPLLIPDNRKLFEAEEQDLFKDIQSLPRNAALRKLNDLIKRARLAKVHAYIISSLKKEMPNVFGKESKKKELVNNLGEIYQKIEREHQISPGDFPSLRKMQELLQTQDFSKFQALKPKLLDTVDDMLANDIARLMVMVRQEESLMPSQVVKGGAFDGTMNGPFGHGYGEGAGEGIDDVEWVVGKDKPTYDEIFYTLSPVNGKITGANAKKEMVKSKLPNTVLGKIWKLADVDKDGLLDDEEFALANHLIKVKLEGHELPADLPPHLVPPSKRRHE
In short: (§1)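 Lysine engagement is reported as R, the MS1 peak-area ratio of heavy-tagged DMSO to light-tagged compound samples. Final fragment concentrations were 50 μM for activated esters and 100 μM for guanidinylating agents; STP-alkyne probe 0.1 mM, 1 h.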

[2] = target: T2, F3 Tissue factor (Homo sapiens, UniProt P13726); test: competitive isoTOP-ABPP; format: binding; details: for isoTOP-ABPP ratio (R) at liganded lysine P13726_K279: 50 uM, in vitro, sol, 231
T2 construct: isoTOP-ABPP experiments performed in cell lysates (in vitro); endogenous in cells; host or cells: soluble proteome of human cancer cell lines (MDA-MB-231; Ramos and Jurkat also prepared)
In short: as §1

T2 sequence (P13726 33-295): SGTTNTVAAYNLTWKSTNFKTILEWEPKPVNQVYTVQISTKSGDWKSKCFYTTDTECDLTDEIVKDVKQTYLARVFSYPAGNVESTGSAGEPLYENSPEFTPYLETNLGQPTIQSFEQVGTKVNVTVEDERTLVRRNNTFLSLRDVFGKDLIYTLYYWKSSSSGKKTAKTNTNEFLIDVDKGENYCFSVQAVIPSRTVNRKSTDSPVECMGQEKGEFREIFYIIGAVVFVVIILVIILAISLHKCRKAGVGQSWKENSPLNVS

`O=C(CCc1cn(-c2ccccc2)nc1-c1ccccc1)Oc1c(F)c(F)c(F)c(F)c1F` [fragment 19, Pentafluorophenyl 3-(1,3-diphenyl-1H-pyrazol-4-yl)propanoate] was tested, and the “R value (DMSO/fragment) for probe 1 labeling” value ([1]; Q9H4M9_K511, 50 uM, 231 sol, in vitro) was 0.8.

For `O=C(Oc1ccc([N+](=O)[O-])cc1[N+](=O)[O-])C(c1ccccc1)c1ccccc1` [fragment 30, 2,4-Dinitrophenyl 2,2-diphenylacetate], the “isoTOP-ABPP reactivity ratio at lysine Q9H4M9_K511” value ([1]; 50 uM, 231 sol, in vitro) was 0.9.

For `Cn1cc(CC(=O)Oc2ccc([N+](=O)[O-])cc2[N+](=O)[O-])c2ccccc21` [fragment 32, 2,4-Dinitrophenyl 2-(1-methyl-1H-indol-3-yl)acetate], the “isoTOP-ABPP reactivity ratio at lysine Q9H4M9_K511” value ([1]; 50 uM, 231 sol, in vitro) was 1.2.

`O=C(Oc1ccc([N+](=O)[O-])cc1[N+](=O)[O-])c1ccc(Oc2ccccc2)cc1` [fragment 39, 2,4-Dinitrophenyl 4-phenoxybenzoate] was tested, and the “isoTOP-ABPP ratio (R) at liganded lysine P13726_K279” value [2] was 1.8.

`CC(=O)Oc1ccc([N+](=O)[O-])cc1[N+](=O)[O-]` [fragment 43, 2,4-Dinitrophenyl acetate] was tested, and the “isoTOP-ABPP ratio (R) at liganded lysine Q9H4M9_K511” value ([1]; 50 uM, in vitro, sol, 231) was 20.0 and the “isoTOP-ABPP ratio (R) at liganded lysine P13726_K279” value [2] was 1.1.

In the case of `N#Cc1ccc(C(=O)Oc2ccc([N+](=O)[O-])cc2[N+](=O)[O-])cc1` [fragment 44, 2,4-Dinitrophenyl 4-cyanobenzoate], the “isoTOP-ABPP ratio, lysine P13726_K279” value ([2]; 50 uM_231_sol_in vitro) is reported as 1.1.

In the case of `O=C(CCc1ccc2c(c1)OCO2)Oc1ccc([N+](=O)[O-])cc1[N+](=O)[O-]` [fragment 45, 2,4-Dinitrophenyl 3-(benzo[d][1,3]dioxol-5-yl)propanoate], the “isoTOP-ABPP ratio, lysine P13726_K279” value ([2]; 50 uM_231_sol_in vitro) is reported as 4.2.

For `O=C(Oc1c(F)c(F)c(C(F)(F)F)c(F)c1F)c1cc(C(F)(F)F)cc(C(F)(F)F)c1` [fragment 47, 2,3,5,6-Tetrafluoro-4-(trifluoromethyl)phenyl 3,5-bis(trifluoromethyl)benzoate], the “isoTOP-ABPP ratio, lysine Q9H4M9_K511” value ([1]; 50 uM_231_sol_in vitro) was 20.0.

With `CC(C)(C)OC(=O)N=C(NC(=O)OC(C)(C)C)n1cccn1` [fragment 50, reference compound] the “isoTOP-ABPP ratio, lysine P13726_K279” value ([2]; 100 uM_231_sol_in vitro) was 1.0.

Source: patent publication US20210255193A1, “LYSINE REACTIVE PROBES AND USES THEREOF” (The Scripps Research Institute, priority 2017, published 2021)
